According to US8198507B2, “Transgenic or recombinant non-human mammals and their uses in screening psychoactive medicines” (Institut National de la Sante Et de la Recherche Medicale - …, priority 2000, dated 2012):

Experiments:
STOP KO (−/−) mice [1] = experiment: Survival of the newborns of treated STOP KO (−/−) mothers; assay type: in vivo; settings: short-term treatment (6 to 8 days before birth), 0.5 mg/kg/day
Protocol: The survival of the newborns is analyzed among the STOP KO (−/−) mice subjected to various treatments. The newborns are considered to be survivors when they are raised until weaning.
(§1) Haloperidol (Haldol^R, JANSSEN-CILAG), chlorpromazine (Largactil^R, RHONE-POULENC) and diazepam (Valium^R, ROCHE) were administered to the mice in the drinking water, at a dose of 0.5 mg/kg/day.

STOP KO (−/−) mice [2] = settings: STOP KO (−/−) mothers, short-term treatment (6 to 8 days before birth), 0.5 mg/kg/day in the drinking water, first day post-partum
Protocol: Post-partum females (second gestation) were reared individually from the beginning of their gestation. On the day of giving birth, the young mice were removed and kept in the warm for one hour. The mother was then removed from her usual cage and three newborns were each placed in a corner of this same cage, at a distance from the nest. Next, the mother was returned to her nest and the number of young mice reinstalled in the nest, over a period of 20 minutes, was evaluated.
The effect of anxiolytics (diazepam) and of neuro-leptics (chlorpromazine, haloperidol or clozapine) on the behavioral disorders of the STOP KO (−/−) mice was evaluated in the maternal behavior test as defined in example 3 (“reinstallation in the nest” test).
as §1
The effect of short-term administration (for 6 to 8 days from the 6th day preceding the birth) of anxiolytics (diazepam) and of neuroleptics (chlorpromazine, haloperidol or clozapine) on the behavioral disorders of the STOP KO (−/−) mice was evaluated in the “reinstallation in the nest” test.

CN1C(=O)CN=C(c2ccccc2)c2cc(Cl)ccc21 [diazepam]
survival of the young mice (STOP KO (−/−) mice [1]): no survival | reinstallation of the young mice in the nest (STOP KO (−/−) mice [2]): slightly improved
